According to paper PMC11023993, “Piperine, quercetin, and curcumin identified as promising natural products for topical treatment of cutaneous leishmaniasis” (Parasitology Research, 2024):
Where two headings read alike, the source gives them in different places.

Key:
[1] = MTT cytotoxicity assay in uninfected U-937 macrophages; settings: human
Protocol: (§1) U-937 (CRL-1593.2™) macrophages (ATCC, Manassas, VA, USA) were cultured in RPMI-1640 medium supplemented with 10% of FBS and incubated at 37 °C in 5% CO2, 95% humidity atmosphere. U-937 cells in the exponential growth phase were recovered, and washed by centrifugation at 1800 rpm for 10 min at room temperature; the pellet was then resuspended in supplemented RPMI 1640 medium and counted in a Neubauer chamber. The number was adjusted to 1 × 10^6 cells per mL and 100 µL was dispensed into each well of a 96-well plate. Then, another 100 µL of each serial dilution of QUE, PIP, CUR, doxorubicin, and amphotericin B was added to each well by triplicate and plates were incubated at 37 °C 5% CO2, 95% humidity atmosphere for 48 h.
(§2) The MTT solution is then added to the treated cells, where the yellow MTT is reduced to purple formazan by a variety of mitochondrial and cytosolic enzymes that are operational in viable cells. After 3 h of incubation with MTT, the formazan precipitates. Consequently, the growing medium was removed, the formazan was dissolved in DMSO, and the absorbance of the solution was measured at 570 nm using a microplate reader spectrophotometer (Varioskan Flash, Thermo Fisher Scientific).
(§3) Cells exposed to the standard cytotoxic drug doxorubicin were used as an internal control for toxicity (positive control) while cells incubated in the absence of any compound or drug were used as a control for viability (negative control). A solution of 0.5% DMSO was used as a blank solution. Non-specific absorbance was corrected by subtracting absorbance (OD) of the blank. Determinations were done by triplicate in at least two independent experiments.
(§4) The OD of viable cells that remained after treatment was compared to the OD of control cells that were not exposed to the drug. The LC50 (median lethal concentration) values and their statistical errors were calculated based on triplicates of the measurement in the independent assays. The LC50 values were determined by non-linear regression using Prism GraphPad 10.
(§5) The LC50 and the EC50 were calculated by Probit analysis using GraphPad Prism 10 (San Diego, CA, USA). Both cytotoxicity and leishmanicidal activity were defined by ranges of values of LC50 and EC50 in terms of high, moderate, or low as follows: high cytotoxicity for LC50 values < 100 µM, moderate cytotoxicity for LC50 values > 100 µM but < 200 µM, and low cytotoxicity for LC50 values > 200 µM. […] In addition, the cytotoxicity in U937 macrophages was correlated with the leishmanicidal activity by calculating the Selectivity Index (SI), using the equation: SI = LC50/EC50 (Indrayanto et al. [2021]).

[2] = tested on: intracellular amastigotes of L. braziliensis; assay: In vitro leishmanicidal activity against intracellular amastigotes in infected U-937 macrophages (flow cytometry); format: cell-based, Leishmania braziliensis; settings: for SI (Selectivity Index = LC50/EC50): LC50 U-937 / EC50 L. braziliensis amastigotes; for EC50: Leishmania braziliensis; for Leishmanicidal activity: class by EC50 on intracellular amastigotes of L. braziliensis
Protocol: Infective L. braziliensis (MHOM/CO/88/UA301-eGFP) (Pulido et al. [2012]) were cultured in Novy-MacNeal-Nicolle (NNN) biphasic medium at 26 °C for 3 passages maximum. U-937 cells, prepared as described in the previous section, were adjusted to approximately 3 × 10^5 cells per mL of supplemented RPMI 1640 medium containing […] of PMA to induce cell adherence. One mL was dispensed into each well of a 24-well plate and platters were incubated at 37 °C in % CO2, 95% humidity atmosphere for 72 h. Then, adherent cells were infected with fluorescent promastigotes of L. braziliensis in a 15:1 parasite to cell ratio. Plates were incubated again at 34 °C and % CO2, 95% humidity atmosphere. After 24 h, non-phagocytosed parasites were washed by pipetting phosphate buffered solution (PBS) in the plate at room temperature and 500 µL of fresh complete RPMI 1640 medium was added. Then, 500 µL of each serial dilution of QUE, PIP, CUR, and amphotericin B was added to each well and plates were incubated at 34 °C with % CO2, 95% humidity atmosphere. The EC50, the median effective concentration to induce […] killing of the intracellular amastigotes in infected cells, was measured by Flow cytometry at 488 nm of excitation and 525 nm of emission. After 48 h of incubation, cells were harvested with cold dissociation buffer (1x PBS with 2% EDTA) and the harvested cells were washed with buffer (1 × PBS with 2% FBS), and results were analyzed by FlowJo 10. The EC50 was determined with a non-lineal regression using Prism GraphPad 10.
as §5

L. braziliensis = tested on: L. braziliensis
Source text: Golden hamsters (Mesocricetus auratus) were purchased from Charles River Laboratories (Wilmington MA, USA) and bred under specific pathogen-free conditions at the animal facility unit of the Universidad de Antioquia in Medellín, Colombia. Six- to eight-week-old, male, and female hamsters were used for the experiments. Animal experimentation protocols including handling of the animals, sample collection, and euthanasia were done in compliance of the Center for Diseases Control and Prevention guidelines for Safe Work Practices in Human and Animal Medical Diagnostic Laboratories and ARRIVE guidelines (Percie du Sert et al. [2020b]; Khairani et al. [2022]) and approved by the Institutional Ethical Committee for animal experimentation (Act No. 152 of June 01, 2023) (Percie du Sert et al. [2020a]; Khairani et al. [2022]).
Hamsters were anesthetized with ketamine (80 mg/kg, i.p.) and xylazine (15 mg/Kg) before infection and then, ∼1 × 10^8 promastigotes in stationary phase (6 days-old growth) were inoculated into the dorsum dermis (Robledo et al. [2012]). When hamsters developed ulcers larger than 12.5 mm^2, hamsters were randomly distributed into 4 groups (n = 6, each): (1) group treated with QUE (1 mg/day), (2) group treated with PIP (2.5 mg/day), (3) group treated with CUR (1.5 mg/day), (4) group treated with meglumine antimoniate (treatment control group, 200 µg/mL, intralesional). No vehicle control group was included in the present study because castor oil additive is a nonionic surfactant commonly used as an excipient in pharmaceutical formulations, particularly in solubilizing poorly water-soluble drugs. It is widely used as an ingredient in cosmetics for its conditioning properties, based on occlusive action, reducing water loss, and having a nourishing effect on the skin, hair, and nails (Marwat et al. [2017]; Khairani et al. [2022]).
Hamsters were treated daily with 40 µL of the corresponding formulation for 2 weeks, applying it directly over the lesion, while hamsters treated with meglumine antimoniate received treatment three times per week for 4 weeks. Lesion area was measured every week for 90 days with an electronic digital caliper. The body weight gain or loss was supervised every 2 weeks during the study. At the end of the study, hamsters were euthanized with an i.p. injection of ketamine (600 mg/kg) and xylazine (30 mg/kg). The experiments were carried out under normal laboratory lighting conditions. After necropsy, biopsies from healed and unhealed ulcers were removed and fixed in 10% buffered formalin, processed, and stained with hematoxylin–eosin (H-E) stain for histopathology analysis. The changes were analyzed under a standard optical microscope.

[3] = tested on: L. braziliensis-induced cutaneous leishmaniasis ulcers; assay: Histopathological analysis (H-E) of healed ulcers from treated hamsters; format: in vivo, golden hamsters (Mesocricetus auratus); set-up: key to Dermis: oedema (grade) / Dermis: granulomatous inflammation (grade) / Epidermis: orthokeratotic hyperkeratosis (grade) / Epidermis: spongiosis (grade) / Epidermis: ulcer (grade) / Dermis: neovascularization (grade) / Dermis: fibroplasia (grade) / Dermis: leukocytic infiltrate (grade): 0, absent; 1, mild; 2, mild to moderate; 3, moderate; 4, moderate to severe; 5, severe; settings: healed ulcer after topical treatment
Protocol: The changes were analyzed under a standard optical microscope.

macrophages = tested on: macrophages; set-up: method as in Ferreira et al. [2011]; settings: ref Ferreira et al. [2011]; cited from earlier work
U-937 cells = assay: MTT cytotoxicity assay in uninfected U-937 macrophages; settings: class by LC50 in U-937 macrophages
Protocol: as §1, §2, §3, §4, §5

[4] = tested on: L. amazonensis amastigotes; set-up: method as in Ferreira et al. [2011]; settings: ref Ferreira et al. [2011], read-out: EC50 for the amastigote stage; cited from earlier work
[5] = intracellular amastigotes of L. braziliensis in U-937 macrophages, 48 h, read-out: EC50 (Median Effective Concentration)
[6] = topical in castor oil daily for 15 days, QUE 1 mg/day, CUR 1.5 mg/day, PIP 2.5 mg/day, n = 6, followed 90 days
[7] = intralesional 200 µg/mL three times per week for 4 weeks, n = 6
[8] = intralesional 200 µg/mL, individual hamster

Row | Compound | CC50 at 48 h [1] | SI (Selectivity Index = LC50/EC50) [2] | EC50 [2, 5] | Leishmanicidal activity [2] | therapeutic response (hamsters cured) (L. braziliensis; [6]) | Dermis: fibroplasia (grade) [3] | Dermis: granulomatous inflammation (grade) [3] | Dermis: leukocytic infiltrate (grade) [3] | Dermis: neovascularization (grade) [3] | Dermis: oedema (grade) [3] | Epidermis: orthokeratotic hyperkeratosis (grade) [3] | Epidermis: spongiosis (grade) [3] | Epidermis: ulcer (grade) [3] | further results
1 | COc1cccc2c1C(=O)c1c(O)c3c(c(O)c1C2=O)C[C@@](O)(C(=O)CO)C[C@@H]3O[C@H]1C[C@H](N)[C@H](O)[C@H](C)O1 [DOXO, Doxorubicin, reference compound] | 1.47 ± 0.06 µM |  |  |  |  |  |  |  |  |  |  |  |  | 
2 | C[C@@H]1[C@H](O)[C@@H](C)/C=C/C=C/C=C/C=C/C=C/C=C/C=C/[C@H](O[C@@H]2O[C@H](C)[C@@H](O)[C@H](N)[C@@H]2O)C[C@@H]2O[C@](O)(C[C@@H](O)C[C@@H](O)[C@H](O)CC[C@@H](O)C[C@@H](O)CC(=O)O[C@H]1C)C[C@H](O)[C@H]2C(=O)O [AMB, Amphotericin B, reference compound] | 56.1 ± 5.8 µM | 172.7 | 0.32 ± 0.01 µM | High (high activity corresponds to EC50 values < 50 µM) |  |  |  |  |  |  |  |  |  | 
3 | COc1cc(/C=C/C(=O)CC(=O)/C=C/c2ccc(O)c(OC)c2)ccc1O [Curcumin, curcumin] | > 543 µM | > 17.4 | 30.9 ± 0.3 µM | High (high activity corresponds to EC50 values < 50 µM) | 83% | 2 | 0 | 2 | 4 | 1 | 2 | 1 | 0 | number of hamsters cured (L. braziliensis; topical 1.5 mg/day for 15 days, n = 6): 5 hamsters; treatment failures (L. braziliensis; topical daily for 15 days, n = 6): one hamster failed treatment; SI (Selectivity Index = LC50/EC50) ([2]; listed as CUR): exceeds 10; EC50 ([2]; U-937, read-out: in vitro antileishmanial activity (EC50 in mass units)): 11.4 ± 0.1 µg/mL
4 | O=C(/C=C/C=C/c1ccc2c(c1)OCO2)N1CCCCC1 [Piperine, piperine] | > 701 µM | > 80 | 8.76 ± 1.4 µM | High (high activity corresponds to EC50 values < 50 µM) | 67% | 2 | 0 | 2 | 2 | 1 | 2 | 2 | 0 | toxicity towards macrophages (macrophages): non-toxicity; Cytotoxicity (U-937 cells): Low (low cytotoxicity for LC50 values > 200 µM); EC50 ([2]; U-937, amastigote stage of L. braziliensis, read-out: in vitro antileishmanial activity (EC50 in mass units)): 2.5 ± 0.4 µg/mL; EC50 ([2]; U-937, read-out: effective concentration (in vitro leishmanicidal activity)): 8 µM; EC50 [4]: 28 µM
5 | meglumine antimoniate [reference compound] |  |  |  |  |  |  |  |  |  |  |  |  |  | number of hamsters cured (L. braziliensis; [7]): 4 hamsters; therapeutic response (hamsters cured) (L. braziliensis; [7]): 67%; increase of lesion in uncured hamster (L. braziliensis; [8]): 80%; reduction in the lesion size in uncured hamster (L. braziliensis; [8]): 14%
6 | Castor oil |  |  |  |  |  |  |  |  |  |  |  |  |  | resolution of CL lesions (L. braziliensis; hamster, in vivo): has not shown resolution of the lesions
